{"source": "ChEMBL document CHEMBL2331362", "about": "“Identification of N-acyl 4-(5-pyrimidine-2,4-dionyl)phenylalanine derivatives and their orally active prodrug esters as dual-acting alpha4-beta1 and alpha4-beta7 receptor antagonists” (Bioorg Med Chem Lett, 2013)", "key": {"[1]": {"assay": "AUC (0 to 8 hrs) in rat at 10 mg/kg, iv", "type": "ADME, organism-based", "parameters": "time < 8 hr, dose 10 mg/kg, route intravenous", "settings": "plasma"}, "[2]": {"assay": "Clearance in mouse at 10 mg/kg, iv", "type": "ADME, organism-based", "parameters": "dose 10 mg/kg, route intravenous", "settings": "in vivo"}, "[3]": {"assay": "Half life in dog at 5 mg/kg, iv", "type": "ADME, organism-based, Canis lupus familiaris", "parameters": "dose 5 mg/kg, route intravenous", "settings": "in vivo"}, "[4]": {"molecular_target": "T1, Integrin alpha-4/beta-1 (Homo sapiens, UniProt P05556+P13612)", "T1 sequence (P05556 whole entry, one chain of several)": "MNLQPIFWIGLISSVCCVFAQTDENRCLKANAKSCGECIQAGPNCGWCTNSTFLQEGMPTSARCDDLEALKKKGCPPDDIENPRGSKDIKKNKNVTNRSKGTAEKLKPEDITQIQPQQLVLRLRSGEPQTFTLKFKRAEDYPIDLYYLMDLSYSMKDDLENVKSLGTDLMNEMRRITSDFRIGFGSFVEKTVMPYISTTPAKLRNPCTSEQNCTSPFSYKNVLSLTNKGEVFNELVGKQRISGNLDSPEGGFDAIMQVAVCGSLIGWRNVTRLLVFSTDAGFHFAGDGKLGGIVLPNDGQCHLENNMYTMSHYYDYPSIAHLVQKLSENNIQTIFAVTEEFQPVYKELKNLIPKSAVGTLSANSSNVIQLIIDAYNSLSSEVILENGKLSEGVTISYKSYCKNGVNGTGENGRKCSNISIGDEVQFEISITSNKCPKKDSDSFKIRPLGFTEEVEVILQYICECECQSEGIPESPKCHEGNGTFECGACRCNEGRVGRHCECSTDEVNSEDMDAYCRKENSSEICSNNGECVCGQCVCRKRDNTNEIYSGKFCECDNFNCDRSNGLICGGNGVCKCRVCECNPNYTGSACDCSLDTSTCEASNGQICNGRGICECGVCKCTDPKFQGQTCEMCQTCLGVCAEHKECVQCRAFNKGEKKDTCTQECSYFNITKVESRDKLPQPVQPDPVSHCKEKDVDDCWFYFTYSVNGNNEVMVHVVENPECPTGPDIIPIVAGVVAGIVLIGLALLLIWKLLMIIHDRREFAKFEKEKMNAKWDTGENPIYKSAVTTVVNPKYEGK", "assay": "Inhibition of human VCAM1 binding to integrin alpha4beta1 receptor in human Ramos cells labeled with Calcein AM relative to (S)-2-(2-chloro-6-methylbenzamido)-3-(4-(2,6-dichlorobenzamido)phenyl)propanoic acid", "type": "cell-based"}, "[5]": {"assay": "Mean residence time in mouse at 10 mg/kg, iv", "type": "ADME, organism-based", "parameters": "dose 10 mg/kg, route intravenous", "settings": "in vivo"}, "[6]": {"assay": "Clearance in rat at 10 mg/kg, iv", "type": "ADME, organism-based", "parameters": "dose 10 mg/kg, route intravenous", "settings": "in vivo"}, "[7]": {"assay": "Apparent permeability across human Caco2 cells", "type": "ADME, cell-based", "settings": "Caco-2"}, "[8]": {"assay": "AUC (0 to 8 hrs) in dog at 5 mg/kg, iv", "type": "ADME, organism-based, Canis lupus familiaris", "parameters": "time < 8 hr, dose 5 mg/kg, route intravenous", "settings": "plasma"}, "[9]": {"assay": "Clearance in dog at 5 mg/kg, iv", "type": "ADME, organism-based, Canis lupus familiaris", "parameters": "dose 5 mg/kg, route intravenous", "settings": "in vivo"}, "[10]": {"assay": "Mean residence time in rat at 10 mg/kg, iv", "type": "ADME, organism-based", "parameters": "dose 10 mg/kg, route intravenous", "settings": "in vivo"}, "[11]": {"assay": "Half life in cynomolgus monkey at 10 mg/kg, iv", "type": "ADME, organism-based, Macaca fascicularis", "parameters": "dose 10 mg/kg, route intravenous", "settings": "in vivo"}, "[12]": {"assay": "Mean residence time in dog at 5 mg/kg, iv", "type": "ADME, organism-based, Canis lupus familiaris", "parameters": "dose 5 mg/kg, route intravenous", "settings": "in vivo"}, "[13]": {"molecular_target": "T2, Integrin alpha-4/beta-7 (Homo sapiens, UniProt P13612+P26010)", "T2 sequence (P13612 whole entry)": "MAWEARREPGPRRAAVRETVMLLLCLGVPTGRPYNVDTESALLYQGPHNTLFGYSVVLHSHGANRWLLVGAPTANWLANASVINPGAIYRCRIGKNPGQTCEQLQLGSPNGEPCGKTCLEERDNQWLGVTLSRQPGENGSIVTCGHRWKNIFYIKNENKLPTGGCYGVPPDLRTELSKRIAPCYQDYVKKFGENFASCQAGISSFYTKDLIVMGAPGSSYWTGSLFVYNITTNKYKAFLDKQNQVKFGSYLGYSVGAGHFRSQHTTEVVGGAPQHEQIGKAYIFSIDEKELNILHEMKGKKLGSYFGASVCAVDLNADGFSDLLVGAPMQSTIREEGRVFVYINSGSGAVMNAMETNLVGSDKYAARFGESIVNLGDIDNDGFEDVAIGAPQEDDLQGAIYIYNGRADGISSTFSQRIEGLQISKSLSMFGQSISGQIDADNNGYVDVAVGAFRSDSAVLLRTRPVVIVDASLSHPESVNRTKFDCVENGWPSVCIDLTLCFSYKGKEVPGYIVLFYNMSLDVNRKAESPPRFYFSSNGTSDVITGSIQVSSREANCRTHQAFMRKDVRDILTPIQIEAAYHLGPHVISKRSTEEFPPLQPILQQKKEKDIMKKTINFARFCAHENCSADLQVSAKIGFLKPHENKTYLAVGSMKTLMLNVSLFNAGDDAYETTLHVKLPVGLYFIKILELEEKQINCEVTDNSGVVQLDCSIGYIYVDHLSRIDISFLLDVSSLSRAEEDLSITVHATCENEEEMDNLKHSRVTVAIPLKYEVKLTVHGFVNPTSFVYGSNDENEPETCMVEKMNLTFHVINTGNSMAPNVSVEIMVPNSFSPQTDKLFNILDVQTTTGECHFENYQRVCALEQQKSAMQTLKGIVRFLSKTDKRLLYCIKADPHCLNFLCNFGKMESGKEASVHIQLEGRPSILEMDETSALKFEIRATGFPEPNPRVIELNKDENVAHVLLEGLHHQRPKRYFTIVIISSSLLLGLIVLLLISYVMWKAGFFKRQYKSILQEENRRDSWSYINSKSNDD", "T2 sequence (P26010 whole entry)": "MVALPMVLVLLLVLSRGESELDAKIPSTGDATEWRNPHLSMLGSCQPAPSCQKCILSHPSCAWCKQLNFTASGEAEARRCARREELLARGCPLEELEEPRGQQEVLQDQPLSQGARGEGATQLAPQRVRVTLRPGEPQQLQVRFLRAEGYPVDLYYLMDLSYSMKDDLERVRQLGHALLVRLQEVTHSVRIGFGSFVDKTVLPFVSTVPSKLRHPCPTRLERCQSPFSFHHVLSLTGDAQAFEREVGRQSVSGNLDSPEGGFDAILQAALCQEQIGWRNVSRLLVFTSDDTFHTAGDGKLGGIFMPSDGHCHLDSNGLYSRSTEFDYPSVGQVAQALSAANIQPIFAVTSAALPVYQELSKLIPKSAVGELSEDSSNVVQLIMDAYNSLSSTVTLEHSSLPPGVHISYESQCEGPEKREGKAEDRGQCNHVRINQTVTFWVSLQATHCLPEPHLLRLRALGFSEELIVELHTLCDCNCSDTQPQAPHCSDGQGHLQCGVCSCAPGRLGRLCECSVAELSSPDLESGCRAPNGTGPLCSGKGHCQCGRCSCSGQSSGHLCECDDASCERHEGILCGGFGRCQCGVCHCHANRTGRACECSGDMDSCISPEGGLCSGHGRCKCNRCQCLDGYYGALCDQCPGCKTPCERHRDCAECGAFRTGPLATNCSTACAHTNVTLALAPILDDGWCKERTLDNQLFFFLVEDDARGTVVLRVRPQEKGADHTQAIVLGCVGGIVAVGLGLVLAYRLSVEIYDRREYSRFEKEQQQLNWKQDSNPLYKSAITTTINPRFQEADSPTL", "assay": "Inhibition of human MAdCAM1 binding to integrin alpha4beta7 receptor in human RPMI 8866 cells labeled with Calcein AM", "type": "cell-based"}, "[14]": {"molecular_target": "T1, Integrin alpha-4/beta-1", "assay": "Inhibition of human VCAM1 binding to integrin alpha4beta1 receptor in human Ramos cells labeled with Calcein AM", "type": "cell-based"}, "[15]": {"assay": "Clearance in cynomolgus monkey at 10 mg/kg, iv", "type": "ADME, organism-based, Macaca fascicularis", "parameters": "dose 10 mg/kg, route intravenous", "settings": "in vivo"}, "[16]": {"assay": "AUC (0 to 8 hrs) in cynomolgus monkey at 10 mg/kg, iv", "type": "ADME, organism-based, Macaca fascicularis", "parameters": "time < 8 hr, dose 10 mg/kg, route intravenous", "settings": "plasma"}, "[17]": {"assay": "AUC (0 to 8 hrs) in mouse at 10 mg/kg, iv", "type": "ADME, organism-based", "parameters": "time < 8 hr, dose 10 mg/kg, route intravenous", "settings": "plasma"}, "[18]": {"assay": "Mean residence time in cynomolgus monkey at 10 mg/kg, iv", "type": "ADME, organism-based, Macaca fascicularis", "parameters": "dose 10 mg/kg, route intravenous", "settings": "in vivo"}, "[19]": {"assay": "Distribution coefficient, log D of the compound", "type": "physicochemical", "settings": "octanol/water"}, "[20]": {"molecular_target": "Integrin alpha-4/beta-7 (Homo sapiens) (UniProt P13612+P26010)", "assay": "Inhibition of human MAdCAM1 binding to integrin alpha4beta7 receptor in human RPMI 8866 cells labeled with Calcein AM relative to (S)-2-(2-chloro-6-methylbenzamido)-3-(4-(2,6-dichlorobenzamido)phenyl)propanoic acid", "type": "cell-based"}}}
{"smiles": "Cc1c(-c2ccc(C[C@H](NC(=O)c3c(F)cccc3F)C(=O)O)cc2)c(=O)n(C)c(=O)n1C", "values": [{"measurement": "AUC(0-t) at 8 h", "setting": "[1]", "value": 41500, "unit": "ng·h/mL"}, {"measurement": "clearance", "setting": "[2]", "value": 21, "unit": "mL/min/kg"}, {"measurement": "half-life", "setting": "[3]", "value": 11.4, "unit": "min"}, {"measurement": "Ratio IC50", "setting": "[4]", "value": 3.2}, {"measurement": "MRT", "setting": "[5]", "value": 15.6, "unit": "min"}, {"measurement": "clearance", "setting": "[6]", "value": 4.8, "unit": "mL/min/kg"}, {"measurement": "Papp", "setting": "[7]", "value": 0.77, "unit": "×10⁻⁶ cm/s"}, {"measurement": "AUC(0-t) at 8 h", "setting": "[8]", "value": 2790, "unit": "ng·h/mL"}, {"measurement": "clearance", "setting": "[9]", "value": 29.7, "unit": "mL/min/kg"}, {"measurement": "MRT", "setting": "[10]", "value": 36.6, "unit": "min"}, {"measurement": "half-life", "setting": "[11]", "value": 87.6, "unit": "min"}, {"measurement": "MRT", "setting": "[12]", "value": 12.6, "unit": "min"}, {"measurement": "IC50", "setting": "[13]", "value": 81, "unit": "nM"}, {"measurement": "IC50", "setting": "[14]", "value": 18, "unit": "nM"}, {"measurement": "clearance", "setting": "[15]", "value": 6.88, "unit": "mL/min/kg"}, {"measurement": "AUC(0-t) at 8 h", "setting": "[16]", "value": 22200, "unit": "ng·h/mL"}, {"measurement": "AUC(0-t) at 8 h", "setting": "[17]", "value": 7890, "unit": "ng·h/mL"}, {"measurement": "MRT", "setting": "[18]", "value": 15, "unit": "min"}, {"measurement": "logD", "setting": "[19]", "value": -2.36}, {"measurement": "Ratio IC50", "setting": "[20]", "value": 3.3}]}
